Measurements from patent US20240174662A1, “SMALL MOLECULE INHIBITORS OF SALT INDUCIBLE KINASES” (Janssen Biotech, Inc., priority 2021, published 2024).

What follows are compounds tested against SIK2 (Homo sapiens (Human), UniProt Q9H0K1) (assay: SIK2 Enzymatic Assay Version 2 (High ATP)). Settings: 3 mM ATP and 200 μM HDAC5tide final, ADP-Glo Max luminescence.
Assay type: biochemical
Method in brief: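 Run at room temperature; SIK2 enzyme at 6 nM (2× final) preincubated with compound 30 min before reaction. ADP formation detected by ADP-Glo Max (2 h reagent, 1 h detection) with luminescence read-out.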

Chain of SIK2 (Q9H0K1 whole entry, species assumed): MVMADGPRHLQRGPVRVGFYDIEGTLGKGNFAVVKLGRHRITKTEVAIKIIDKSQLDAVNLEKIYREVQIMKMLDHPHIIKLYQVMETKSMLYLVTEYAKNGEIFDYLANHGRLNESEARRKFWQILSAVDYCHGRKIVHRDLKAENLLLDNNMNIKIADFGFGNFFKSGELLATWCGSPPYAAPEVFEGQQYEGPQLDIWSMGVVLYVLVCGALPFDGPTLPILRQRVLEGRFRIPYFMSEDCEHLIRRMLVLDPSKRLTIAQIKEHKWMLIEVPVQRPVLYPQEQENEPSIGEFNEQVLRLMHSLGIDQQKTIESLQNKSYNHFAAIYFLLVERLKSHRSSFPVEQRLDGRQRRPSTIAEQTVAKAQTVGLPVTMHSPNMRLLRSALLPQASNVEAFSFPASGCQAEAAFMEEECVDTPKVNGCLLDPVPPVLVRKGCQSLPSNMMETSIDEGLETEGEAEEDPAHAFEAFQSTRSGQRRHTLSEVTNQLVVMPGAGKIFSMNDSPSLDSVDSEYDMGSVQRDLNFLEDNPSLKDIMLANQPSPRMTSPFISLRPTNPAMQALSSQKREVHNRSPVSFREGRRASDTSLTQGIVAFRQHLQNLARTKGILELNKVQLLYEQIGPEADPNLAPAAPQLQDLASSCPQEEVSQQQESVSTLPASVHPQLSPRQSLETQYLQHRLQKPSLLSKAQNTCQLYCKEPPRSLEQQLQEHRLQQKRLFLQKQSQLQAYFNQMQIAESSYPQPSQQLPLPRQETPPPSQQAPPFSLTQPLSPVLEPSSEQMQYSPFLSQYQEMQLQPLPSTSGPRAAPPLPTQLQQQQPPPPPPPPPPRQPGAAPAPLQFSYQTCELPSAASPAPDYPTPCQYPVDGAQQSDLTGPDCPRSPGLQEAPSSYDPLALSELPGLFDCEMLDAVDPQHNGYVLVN

Question: `CNC(=O)c1nc(C)cc(Nc2cc3cc(-c4c(OC[C@H]5CCN5C)cnn4C)ccn3n2)n1` [Example 109, N,4-dimethyl-6-[[5-[2-methyl-4-[[(2R)-1-methylazetidin-2-yl]methoxy]pyrazol-3-yl]pyrazolo[1,5-a]pyridin-2-yl]amino]pyrimidine-2-carboxamide] was tested. Which IC50 did it give?
Answer: The IC50 was 6.2 nM.

Question: With `Cc1cc(Nc2cc3cc(-c4c(OC[C@H]5CCN5C)cnn4C)ccn3n2)nc(C(=O)N(C)C)n1` [Example 110, N,N,4-trimethyl-6-[[5-[2-methyl-4-[[(2R)-1-methylazetidin-2-yl]methoxy]pyrazol-3-yl]pyrazolo[1,5-a]pyridin-2-yl]amino]pyrimidine-2-carboxamide] as the compound, how does the IC50 read?
Answer: The IC50 was 2.8 nM.

Question: Which IC50 does the source give for `Cc1cc(C(=O)NCC(C)(C)O)cc(Nc2cc3cc(-c4c(OC[C@H]5CCN5C)cnn4C)ccn3n2)n1` [Example 111, N-(2-hydroxy-2-methyl-propyl)-2-methyl-6-[[5-[2-methyl-4-[[(2R)-1-methylazetidin-2-yl]methoxy]pyrazol-3-yl]pyrazolo[1,5-a]pyridin-2-yl]amino]pyridine-4-carboxamide] here?
Answer: The IC50 was 1.3 nM.

Question: For `Cc1cc(C(=O)NC(C)C)cc(Nc2cc3cc(-c4c(OC[C@H]5CCN5C)cnn4C)ccn3n2)n1` [Example 112, N-isopropyl-2-methyl-6-[[5-[2-methyl-4-[[(2R)-1-methylazetidin-2-yl]methoxy]pyrazol-3-yl]pyrazolo[1,5-a]pyridin-2-yl]amino]pyridine-4-carboxamide], which IC50 is on record?
Answer: Its IC50 is 2.7 nM.

Question: For `Cc1cc(Nc2cc3cc(-c4c(OC[C@H]5CCN5C)cnn4C)ccn3n2)nc(C(=O)NCC(C)(C)O)c1` [Example 113, N-(2-hydroxy-2-methyl-propyl)-4-methyl-6-[[5-[2-methyl-4-[[(2R)-1-methylazetidin-2-yl]methoxy]pyrazol-3-yl]pyrazolo[1,5-a]pyridin-2-yl]amino]pyridine-2-carboxamide], which IC50 is on record?
Answer: The IC50 was 22.3 nM.

Question: For `CN1CC[C@@H]1COc1cnn(C)c1-c1ccn2nc(Nc3ccc4c(n3)CCOC4)cc2c1` [Example 114, N-[5-[2-methyl-4-[[(2R)-1-methylazetidin-2-yl]methoxy]pyrazol-3-yl]pyrazolo[1,5-a]pyridin-2-yl]-7,8-dihydro-5H-pyrano[4,3-b]pyridin-2-amine], which IC50 is on record?
Answer: The IC50 was 1.1 nM.

Question: With `COCCNC(=O)c1cnc(Nc2cc3cc(-c4c(OC[C@H]5CCN5C)cnn4C)ccn3n2)cn1` [Example 115, N-(2-methoxyethyl)-5-[[5-[2-methyl-4-[[(2R)-1-methylazetidin-2-yl]methoxy]pyrazol-3-yl]pyrazolo[1,5-a]pyridin-2-yl]amino]pyrazine-2-carboxamide] as the compound, how does the IC50 read?
Answer: Its IC50 is 9 nM.

Question: Which IC50 does the source give for `Cc1cc(Nc2cc3cc(-c4c(OC[C@H]5CCN5C)cnn4C)ccn3n2)nc(-c2cccnc2)n1` [Example 116, 5-[2-methyl-4-[[(2R)-1-methylazetidin-2-yl]methoxy]pyrazol-3-yl]-N-[6-methyl-2-(3-pyridyl)pyrimidin-4-yl]pyrazolo[1,5-a]pyridin-2-amine] here?
Answer: The IC50 was less than 0.847 nM.

Question: Which IC50 does the source give for `CN1CC[C@@H]1COc1cnn(C)c1-c1ccn2nc(Nc3cnc(C(F)(F)F)cn3)cc2c1` [Example 117, 5-[2-methyl-4-[[(2R)-1-methylazetidin-2-yl]methoxy]pyrazol-3-yl]-N-[5-(trifluoromethyl)pyrazin-2-yl]pyrazolo[1,5-a]pyridin-2-amine] here?
Answer: Its IC50 is 8.8 nM.

Question: `CN1CC[C@@H]1COc1cnn(C)c1-c1ccn2nc(Nc3ccnc(C(F)(F)F)n3)cc2c1` [Example 118, 5-[2-methyl-4-[[(2R)-1-methylazetidin-2-yl]methoxy]pyrazol-3-yl]-N-[2-(trifluoromethyl)pyrimidin-4-yl]pyrazolo[1,5-a]pyridin-2-amine] was tested. Which IC50 did it give?
Answer: The IC50 was 1.9 nM.

Question: How did the IC50 turn out when `COc1nccc(Nc2cc3cc(-c4c(OC[C@H]5CCN5C)cnn4C)ccn3n2)n1` [Example 119, N-(2-methoxypyrimidin-4-yl)-5-[2-methyl-4-[[(2R)-1-methylazetidin-2-yl]methoxy]pyrazol-3-yl]pyrazolo[1,5-a]pyridin-2-amine] was run?
Answer: Its IC50 is 1.6 nM.
